The values that follow come from ChEMBL document CHEMBL1127212, “Preparation and evaluation of the antiaggregating and vasodilating activities of the novel 3-nitro-4(3H)-quinazolinone derivatives” (Bioorg Med Chem Lett, 1993).

Common to all, as to format: functional
The species entered for assay [1] is Oryctolagus cuniculus. Put plainly: Tested in vitro for inhibition of aggregation induced by Collagen in rabbit platelet rich plasma at the dose of 10 ug/ml.
For assay [2], the species on record is Oryctolagus cuniculus. In words: Tested in vitro for inhibition of aggregation induced by adenosine diphosphate (ADP) in rabbit platelet rich plasma at the dose of […].
Assay [3] is filed under the species Oryctolagus cuniculus. Put plainly: Tested for vasodilating activity using a transverse strip preparation of rabbit thoracic aorta.
For assay [4], the species on record is Oryctolagus cuniculus. In words: Tested for inhibition of aggregation induced by Collagen in rabbit platelet rich plasma in vitro at the dose of 10 ug/ml.
The species named for assay [5] is Oryctolagus cuniculus. Put plainly: Tested for inhibition of aggregation induced by adenosine diphosphate (ADP) in rabbit platelet rich plasma in vitro at the dose of […].
The species named for assay [6] is Oryctolagus cuniculus. Put plainly: Tested for inhibition of aggregation induced by arachidonic acid in rabbit platelet rich plasma in Vitro at the dose of 125 uM.
For assay [7], the species on record is Oryctolagus cuniculus. In words: Tested in vitro for inhibition of aggregation induced by arachidonic acid in rabbit platelet rich plasma at the dose of 125 uM.

Turning to “SODIUM NITROPRUSSIDE [listing 1 of 2 here]”, the IC50 (in general, the midpoint of a concentration-inhibition curve) in the assay filed under Oryctolagus cuniculus [1] is under 1000 µM; in the assay filed under Oryctolagus cuniculus [2], 95 µM.
In the case of “SODIUM NITROPRUSSIDE [listing 2 of 2 here]”, the pD2 in the assay listed under Oryctolagus cuniculus [3] worked out at 4.08.
With `CC(=O)OC1N([N+](=O)[O-])C(=O)c2ccccc2N1[N+](=O)[O-]` (stereo unspecified), the pD2 in the assay listed under Oryctolagus cuniculus [3] is 5.36. Moreover, the values for the IC50 in the assay filed under Oryctolagus cuniculus [4], in the assay listed under Oryctolagus cuniculus [5] and in the assay filed under Oryctolagus cuniculus [6] were 52 µM, 48 µM and 50 µM, respectively.
In turn, `CC(=O)OC1N([N+](=O)[O-])C(=O)c2cc(Cl)ccc2N1[N+](=O)[O-]` (stereo unspecified) registered a pD2 in the assay listed under Oryctolagus cuniculus [3] of 5.4. Moreover, the 50% inhibitory concentration (IC50) in the assay filed under Oryctolagus cuniculus [1] (Oryctolagus cuniculus, Plasma) amounted to 52 µM; in the assay listed under Oryctolagus cuniculus [2] (Oryctolagus cuniculus, Plasma), 46 µM; in the assay listed under Oryctolagus cuniculus [7] it was 40 µM.
